Results on four molecules are retold here after patent US20060058268A1, “Compounds and methods for treating diabetic vascular diseases” (priority 2004, published 2006).

The test system of data set [1] is VCAM-1. The data set is described as follows: VCAM-1 assay with ELISA readout (Examples 5-6). The class given is cell-based. To be noted: for IC50: TNF added with compound, incubated overnight (approximately 16 hours). The protocol:
Two to four confluent P150 plates are trypsinized and the cells transferred to a 50 mL conical centrifuge tube. The cells are pelleted, resuspended, and counted using the trypan blue exclusion method.
Cells are resuspended at a concentration of 36,000 cells/mL and 1 mL is aliquoted per well.
Cells are split into 24 well tissue culture plates. The cells in each well should be approximately 90-95% confluent by the following day. Cells should not be older than passage 8.
Compounds are initially screened at 50 μM and 10 μM. A 50 mM stock solution for each compound is prepared in culture medium. The stock solution is diluted to 5 mM and 1 mM. When 10 μL of the 5 mM solution is added to the well (1 mL medium/well), the final concentration will be 50 μM. Adding 10 μL of the 1 mM solution to the well will give a final concentration of 10 μM.
Compounds which will not go into solution in culture medium are resuspended in DMSO at a concentration of 25 mM. The stock solution is then diluted to the final concentration in culture medium. The old medium is aspirated and 1 mL of the new medium with the compound is added. For example, if the final concentration is 50 µM, the 2 μL of the 25 mM stock is added per mL of culture medium. The […] solution is diluted for lower concentrations.
The compounds are added to the plate (each compound is done in duplicate). One plate is done for VCAM expression and one plate is done for ICAM expression.
Immediately after the compounds are added, TNF is added to each well. 100 units/mL TNF is usually added to each well. Since each lot of TNF varies in the number of units, each new lot is titrated to determine the optimum concentration. Therefore this concentration will change. If 100 units/mL is being used, dilute the TNF to 10 units/μL and add 10 μL to each well.
(§1) The plates are incubated at 37° C., 5% CO2 overnight (approximately 16 hours). The next day the plates are checked under the microscope to see if there are any visual signs of toxicity. Records are made of any cell death, debris, or morphology changes, as well as insoluble compounds (particulate or turbity).
In order to assess MCP-1, the media (500 μL) is saved and frozen at −70° C. Wash cells once with roughly 1 ml/well of Hanks Balance Salt Solution (HBSS) or PBS. Gently empty the wash solution and then tap the plate onto paper towels. Add either 250 μL/well of HBSS+5% FCCS to the plank (no primary antibody wells) or 250 μL/well of primary antibody diluted in HBSS+5% FCS. Incubate for 30 minutes at 37° C. Wash the wells twice with 0.5 mL/well HBSS or PBS and gently tap the plates onto paper towels after the last wash. Add 250 μL/well of HRP-conjugated second antibody diluted in HBSS+5% FCS to every well including the blank wells (no primary antibody). Incubate at 37° C. for 30 minutes. Wash the wells four times with 0.5 mL/well HBSS or PBS and gently tap the plates onto paper towels after the last wash. Add 250 μL/well of substrate solution. Incubate at room temperature in the dark until there is adequate color development (blue). Note the length of time incubation was performed (typically 15-30 minutes). Add 75 μL/well stopper solution (8N sulfuric acid), and read at 450 nm.
In general terms: An ELISA detects its analyte on a solid surface through an enzyme-linked reagent.

Data set [2] concerns cells. The class given is cell-based. Details: unit not given beside the values. The protocol:
as §1

Some results are limits rather than exact numbers.

With `CC(C)(C)c1cc(SCCCC(=O)O)cc(C(C)(C)C)c1O` [2,6-di-tert-butyl-4-thio(butanoic acid)phenol], in data set [1], the half-inhibitory concentration (IC50) stood at 75 µM. In data set [2], this molecule registered an LD50 of 200.

As for `CC(C)(C)c1cc(SCc2ccc(C(=O)O)cc2)cc(C(C)(C)C)c1O` [2,6-di-tert-butyl-4-thio(4′(methyl)benzoic acid)phenol], the IC50 in data set [1] was above 50 µM. The LD50 in data set [2] is above 100.

As to `CN(C)CCCSc1cc(C(C)(C)C)c(O)c(C(C)(C)C)c1` [2,6-di-tert-butyl-4-thio(3′-(dimethylamino)propyl))phenol], the “VCAM-1 inhibition at [μM]” value in data set [1] (at 50 μM) is on record as 30% at 50. In data set [2], the LD50 is recorded as 100.

Consider `CC(C)(C)c1cc(SCc2cccc([N+](=O)[O-])c2)cc(C(C)(C)C)c1O` [2,6-di-tert-butyl-4-thio(3′-nitrobenzyl)phenol], for which, in data set [1], the IC50 stood at 13 µM. The same molecule gave an LD50 in data set [2] of 200.

A word on the IC50: it is the concentration that gives 50% inhibition.
